Assay results as given in US9655824B2, “Use of diphenylmethane derivatives as tyrosinase inhibitors” (Symrise AG, priority 2003, dated 2017).

Tests used:
Assay type in all cases: cell-based
[1] = Cytotoxicity determination (MTT), 3T3 cells; conditions: mouse, 3T3 fibrosarcoma cells; 3T3 cells, 48 h incubation, MTT
Procedure: (§1) 3T3 fibrosarcoma cells or B16V mouse melanoma cells are distributed in a 96-well microtitre plate in a concentration of 1×10^4 cells/well (3T3) or 2×10^4 cells/well (B16V). After culturing for 24 h at 37° C. and 5% CO2 in DMEM medium (3T3 cells) or RPMI medium (B16V cells), enriched with 10% foetal calf serum, the medium is removed by suction. Various concentrations of the test substances, dissolved in fresh medium enriched with 5% foetal calf serum, are added and the plates are incubated for a further 48 h. A parallel incubation is carried out using SDS as standard in concentrations of 0.01 mM, 0.1 mM, 1 mM and 10 mM. After the incubation, the medium is removed by suction and the cells are incubated for with (sic) 2 h with MTT (3-[4,5-dimethylthiazol-2-yl]2,5-diphenyl tetrazolium bromide). After extraction of the dye with SDS acidified with acetic acid in DMSO (10 min), the absorption (A) at 570 nm is measured.
(§2) Average value and standard deviation of the controls, the blanks and the samples are calculated. The average value of the blanks is substracted from the average values of the controls and samples. The viability of the cells is indicated as a percentage with respect to the controls (100%): Viability (%)=(Atest compound/Acontrol)×100]

[2] = test system: B16V mouse melanoma cells; test: Lightening effect: inhibition of pigmentation in α-MSH-stimulated B16V cells; conditions: for IC50: Mus musculus, B16V cells, 10 nM α-MSH, 96 h, absorption 400 nm; for Activity greater than that of kojic acid by a factor: ratio of IC50 values versus kojic acid
Procedure: Test method: B16V mouse melanoma cells are distributed in a 96-well micro titre plate in a concentration of 5×10^3 cells/well. After culturing for 24 h at 37° C. and 5% CO2 in RPMI medium, enriched with 10% foetal calf serum, various concentrations of the test substances and 10 nM α-MSH (α-melanocyte stimulating hormone) are added and the plates are incubated for a further 96 h. The maximum concentration of the test substances used corresponds to 0.1 times the value of the particular IC20 value from the cytotoxicity assay. A parallel incubation was carried out with kojic acid as standard in concentrations of 0.01 mM, 0.1 mM and 1 mM. After the incubation, SDS and NaOH (final concentrations: 1 mM and 1M, respectively) are added to the culture medium and the adsorption (A) is measured at 400 nm after 3 h. The inhibition of the pigmentation in the presence of the test compounds or kojic acid was calculated in accordance with the following equation: Inhibition of pigmentation (%)=100−[(Atest compound/Acontrol)×100] The IC50 is calculated for each test compound from the inhibition of the pigmentation (%) in a series of dilutions of test compounds. The IC50 is the concentration of a test compound at which the pigmentation is 50% inhibited.

[3] = Cytotoxicity determination (MTT), B16V cells; conditions: mouse, B16V melanoma cells, 48 h incubation
Procedure: as §1, §2

3T3 fibrosarcoma cells = test: Cytotoxicity determination (MTT), 3T3 cells; conditions: approximately comparable to 4-hexylresorcinol
Procedure: as §1, §2

Row | Compound | IC20 at 48 h [1] | IC50 at 48 h [1] | IC50 [2] | Activity greater than that of kojic acid by a factor [2] | IC20 at 48 h [3] | IC50 at 48 h [3] | Cytotoxicity (in words) (3T3 fibrosarcoma cells) | Effectiveness compared with 4-hexylresorcinol ([2]; versus 4-hexylresorcinol)
1 | CCCCCCc1ccc(O)cc1O [4-hexylresorcinol] | 70 µM | 140 µM | 5.2 µM | approximately 87 |  |  |  | 
2 | O=c1cc(CO)occ1O [Kojic acid, 5-hydroxy-2-hydroxymethyl-4-pyranone] | > 100000 µM | > 100000 µM |  |  | > 100000 µM | > 100000 µM |  | 
3 | CC(c1ccccc1)c1ccc(O)cc1O (stereo not shown) [Styrylresorcinol (4), 4-(1-phenylethyl)-1,3-dihydroxybenzene] | 70 µM | 150 µM | 2.1 µM | approximately 215 | 20 µM | 140 µM | relatively low cytotoxicity | more than twice as effective
